Measurements published in ChEMBL document CHEMBL1201862, “PubChem BioAssay data set” (2004).
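The compound was tested at five concentrations on cells cultured in 96-well plates, with a 48-hour exposure period. GI50 marks 50% less growth.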 Active and inactive are the calls of the source. No stated cut-off is given here; in the data, active = GI50 up to about 1.1 µM and inactive = higher.

Assays:
Assay in all cases: NCI-60 cell line screen, 48 h
OVCAR-3 = test system: OVCAR-3
SK-OV-3 = test system: SK-OV-3
HOP-92 = test system: HOP-92
NCI-H23 = test system: NCI-H23
LOX IMVI = test system: LOX IMVI
786-0 = test system: 786-0
EKVX = test system: EKVX
SW-620 = test system: SW-620
HOP-62 = test system: HOP-62
U-251 = test system: U-251
OVCAR-4 = test system: OVCAR-4
HCT-116 = test system: HCT-116
BT-549 = test system: BT-549
Hs-578T = test system: Hs-578T
MCF7 = test system: MCF7
SF-268 = test system: SF-268
A498 = test system: A498
RXF 393 = test system: RXF 393
ACHN = test system: ACHN
SR = test system: SR

Compound	GI50 (OVCAR-3)	GI50 (SK-OV-3)	GI50 (HOP-92)	GI50 (NCI-H23)	GI50 (LOX IMVI)	GI50 (786-0)	GI50 (EKVX)	GI50 (SW-620)	GI50 (HOP-62)	GI50 (U-251)	GI50 (OVCAR-4)	GI50 (HCT-116)	GI50 (BT-549)	GI50 (Hs-578T)	GI50 (MCF7)	GI50 (SF-268)	GI50 (A498)	GI50 (RXF 393)	GI50 (ACHN)	GI50 (SR)
CC1CCC2C(C(=O)O[C@H]3C4C=CO[C@@H](OC5OC(CO)C(O)C(O)C5O)C4[C@@]4(CO)O[C@@H]34)=CO[C@@H](OC3OC(CO)C(O)C(O)C3O)C12 (stereo not given in full)	> 10 µM (inactive)	> 10 µM (inactive)	> 10 µM (inactive)	> 10 µM (inactive)	> 10 µM (inactive)	> 10 µM (inactive)	> 10 µM (inactive)	> 10 µM (inactive)	> 10 µM (inactive)	> 10 µM (inactive)	> 10 µM (inactive)	> 10 µM (inactive)	> 10 µM (inactive)	> 10 µM (inactive)	> 10 µM (inactive)	> 10 µM (inactive)	> 10 µM (inactive)	> 10 µM (inactive)	> 10 µM (inactive)	
CCC[C@@H]1C(=O)N=C(N)N1C(=O)OCc1ccccc1	> 100 µM (inactive)			> 100 µM (inactive)	> 100 µM (inactive)	> 100 µM (inactive)	> 100 µM (inactive)	> 100 µM (inactive)	> 100 µM (inactive)	> 100 µM (inactive)	> 100 µM (inactive)	> 100 µM (inactive)	> 100 µM (inactive)	> 100 µM (inactive)	> 100 µM (inactive)	> 100 µM (inactive)	> 100 µM (inactive)	> 100 µM (inactive)	> 100 µM (inactive)	> 100 µM (inactive)
c1ccc(/C(=N/Nc2ccncn2)c2ccccn2)cc1	6.78 µM (inactive)	23.7 µM (inactive)		17.6 µM (inactive)		17.8 µM (inactive)	4.34 µM (inactive)	6.32 µM (inactive)	31.7 µM (inactive)	39.6 µM (inactive)	49.1 µM (inactive)	14.3 µM (inactive)	35.1 µM (inactive)	0.0114 µM (active)	8.51 µM (inactive)	15.9 µM (inactive)		34.3 µM (inactive)	5.82 µM (inactive)	10.5 µM (inactive)
CC1=C(C(=O)OCCc2ccc([N+](=O)[O-])cc2)C(c2ccccc2[N+](=O)[O-])C(C(=O)OC(C)C)=C(C)N1 (stereo not given)	5.08 µM (inactive)	5.81 µM (inactive)		3.97 µM (inactive)	4.14 µM (inactive)	3.08 µM (inactive)	2.36 µM (inactive)	6.89 µM (inactive)	8.67 µM (inactive)	4.73 µM (inactive)	37.9 µM (inactive)	2.75 µM (inactive)	2.4 µM (inactive)	4.38 µM (inactive)	3.78 µM (inactive)	5.55 µM (inactive)		3.22 µM (inactive)	3.4 µM (inactive)	2.94 µM (inactive)
CC1=CC2=C(C(N)=O)C(=O)OC2(C)C(c2ccccc2)C1 (stereo not given)	> 100 µM (inactive)	> 100 µM (inactive)	> 100 µM (inactive)		> 100 µM (inactive)	> 100 µM (inactive)	> 100 µM (inactive)	> 100 µM (inactive)	> 100 µM (inactive)	> 100 µM (inactive)	> 100 µM (inactive)	> 100 µM (inactive)	> 100 µM (inactive)	> 100 µM (inactive)	> 100 µM (inactive)	> 100 µM (inactive)	> 100 µM (inactive)		> 100 µM (inactive)	> 100 µM (inactive)
CCOP(=O)(OCC)c1cc(-c2ccccc2)ccc1N	> 100 µM (inactive)	> 100 µM (inactive)	34.6 µM (inactive)	> 100 µM (inactive)		> 100 µM (inactive)	41.5 µM (inactive)	> 100 µM (inactive)	37.2 µM (inactive)	> 100 µM (inactive)	89.1 µM (inactive)	66.5 µM (inactive)	> 100 µM (inactive)	52 µM (inactive)	> 100 µM (inactive)	> 100 µM (inactive)	> 100 µM (inactive)	33 µM (inactive)	> 100 µM (inactive)	
O=C1c2ccc3ccccc3c2CCC1N1CCCCC1 (stereo not given)	15.4 µM (inactive)	22 µM (inactive)	16.6 µM (inactive)	19.7 µM (inactive)	19.2 µM (inactive)	18 µM (inactive)	22.4 µM (inactive)	17.6 µM (inactive)	18.7 µM (inactive)	18.9 µM (inactive)	16.6 µM (inactive)	17.8 µM (inactive)	23.3 µM (inactive)	20.3 µM (inactive)	33.3 µM (inactive)	19.1 µM (inactive)		20.6 µM (inactive)	17.7 µM (inactive)	15.1 µM (inactive)
COC(=O)C1Cc2c(OC)ccc(OC)c2CC(C(=O)OC)C1=O (stereo not given)	> 100 µM (inactive)	> 100 µM (inactive)	44 µM (inactive)	32.4 µM (inactive)		> 100 µM (inactive)	> 100 µM (inactive)	> 100 µM (inactive)	> 100 µM (inactive)	> 100 µM (inactive)	> 100 µM (inactive)	> 100 µM (inactive)	> 100 µM (inactive)	> 100 µM (inactive)	> 100 µM (inactive)	> 100 µM (inactive)	> 100 µM (inactive)	> 100 µM (inactive)	63.5 µM (inactive)	
